# Reference: US7199129B2, “Derivatives of morphine-like opioid compounds” (Monash University, priority 2001, dated 2007)
# “And” between values parts separate entries of the source, which are not always exact repeats. Identical values can stand only once. Counter-ions that a name gives are not always drawn.
# Columns and labels:
# ICR mice [1] = experiment: Straub tail behaviour (indicator of CNS activity) and observed signs in test animals
# Source text: The Straub test is an indicator of CNS activity.
# The tail-flick test is thought to involve central nervous system activity, and therefore provides further confirmation of the Straub tail test.
# ICR mice [2] = experiment: Phenylquinone-induced writhing assay in mice (Example 18); type: in vivo; conditions: IP; for Number of Writhings Individual: individual mice
# Protocol: Testing on compounds KRS-6-26 and JFY-058 was also carried out under contract by MDS Services—Taiwan Ltd. The study was designed to evaluate the effects of the compounds as analgesics in the phenylquinone-induced writhing assay described in detail in Example 13(Siegmund et al, 1957).
# (§1) In each case, a serial 2-fold dosage variance was used in the test, from 128 mg/kg to 1 mg/kg (8 doses in total). Groups of 3 male or female ICR mice weighing 22±2 g were employed. A serial 2-fold dosage variance was used in the test (8 doses in total). Variant doses (1, 2, 4, 8, 16, 32, 64 and 128 mg/kg) of test substances were administered intraperitoneally (IP). A vehicle of 2% Tween 80 in 0.9% NaCl was used for the intraperitoneal injection. The control group received vehicle alone. […] A reduction in the number of writhes by 50 percent or more (≧50%) relative to the vehicle-treated group indicated possible analgesic activity.
# human κ-opiate receptor = target: T1, human κ-opiate receptor (Homo sapiens, UniProt P41145); experiment: In vitro opiate receptor radioligand binding assay, κ; conditions: test compound 10 μM; read-out: Percentage inhibition of radioligand binding, κ-opiate receptor
# T1 construct: purchased MDS Pharma Services 260210
# Protocol: (§2) To characterise the target specificity of the compounds, KRS-5-150 and KRS-6-26 were tested at a concentration of 10 μM for their ability to inhibit the binding of a radioligand to human δ-, κ-, or μ-opiate receptors in vitro using commercially available assays (MDS Pharma Services; assay catalogue numbers 260110, 260210 and 260410 respectively).
# (§3) Percentage inhibition of radioligand binding to human opioid receptors in vitro by test compounds (10 μM)
# human δ-opiate receptor = target: T2, human δ-opiate receptor (Homo sapiens, UniProt P41143); experiment: In vitro opiate receptor radioligand binding assay, δ; conditions: test compound 10 μM; read-out: Percentage inhibition of radioligand binding, δ-opiate receptor
# T2 construct: purchased MDS Pharma Services 260110
# Protocol: as §2, §3
# human μ-opiate receptor = target: T3, human μ-opiate receptor (Homo sapiens, UniProt P35372); experiment: In vitro opiate receptor radioligand binding assay, μ; conditions: test compound 10 μM; read-out: Percentage inhibition of radioligand binding, μ-opiate receptor
# T3 construct: purchased MDS Pharma Services 260410
# Protocol: as §2, §3
# ICR mice [3] = experiment: Phenylquinone-induced writhing model in mice (Example 16); type: in vivo; conditions: IP, 3 mg/kg, Table 1
# Protocol: as §1, with “KRS-5-150 was evaluated for possible analgesic activity in the phenylquinone-induced writhing model in mice (Siegmund et al, 1957). A” for “In each case, a”
# ICR mice [4] = experiment: Radiant heat-induced tail-flick response assay in mice; type: in vivo; conditions: IP, 10 mg/kg
# Protocol: For the tail-flick assay, groups of four male or female ICR mice weighing 22±2 g were used, and the test compound dissolved in 2% Tween 80/0.9% NaCl was administered intraperitoneally. The compound was administered intraperitoneally at 4, 8, 16 or 32 mg/kg, using 2% Tween 80—0.9% NaCl as the vehicle. Controls received vehicle alone. Morphine-HCl at a dose of 10 mg/kg was used as a positive control. At the pre-treatment point (0 minutes) a focused beam of radiant heat was applied to the middle dorsal surface of the tail to elicit a tail-flick response. […] The time required to elicit a pain response was recorded for each animal at 30 minutes following administration of the test compound. A prolongation of 50% or more ≧50% of the time required to elicit tail-flick response indicated possible analgesic activity.
# T1 sequence (P41145 whole entry): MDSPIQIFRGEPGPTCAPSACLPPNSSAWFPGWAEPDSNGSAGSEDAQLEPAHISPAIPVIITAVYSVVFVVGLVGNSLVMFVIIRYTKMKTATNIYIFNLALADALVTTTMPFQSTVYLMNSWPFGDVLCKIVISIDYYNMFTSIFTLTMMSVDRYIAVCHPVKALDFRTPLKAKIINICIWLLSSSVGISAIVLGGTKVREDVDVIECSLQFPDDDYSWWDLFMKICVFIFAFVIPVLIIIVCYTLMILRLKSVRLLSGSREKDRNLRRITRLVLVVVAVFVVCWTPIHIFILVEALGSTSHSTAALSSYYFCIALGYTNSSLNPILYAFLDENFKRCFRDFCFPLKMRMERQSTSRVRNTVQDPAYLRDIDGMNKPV
# T3 sequence (P35372 whole entry): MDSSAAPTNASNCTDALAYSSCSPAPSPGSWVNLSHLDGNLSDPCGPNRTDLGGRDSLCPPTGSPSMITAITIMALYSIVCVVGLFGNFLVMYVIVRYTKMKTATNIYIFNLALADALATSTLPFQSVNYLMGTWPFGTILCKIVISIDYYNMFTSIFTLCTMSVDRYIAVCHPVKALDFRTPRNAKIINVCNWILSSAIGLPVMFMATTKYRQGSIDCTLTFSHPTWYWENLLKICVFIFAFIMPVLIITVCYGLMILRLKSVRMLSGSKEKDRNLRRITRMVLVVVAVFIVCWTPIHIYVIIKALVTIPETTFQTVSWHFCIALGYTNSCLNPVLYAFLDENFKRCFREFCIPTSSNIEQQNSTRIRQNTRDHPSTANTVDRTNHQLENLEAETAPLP
# T2 sequence (P41143 whole entry): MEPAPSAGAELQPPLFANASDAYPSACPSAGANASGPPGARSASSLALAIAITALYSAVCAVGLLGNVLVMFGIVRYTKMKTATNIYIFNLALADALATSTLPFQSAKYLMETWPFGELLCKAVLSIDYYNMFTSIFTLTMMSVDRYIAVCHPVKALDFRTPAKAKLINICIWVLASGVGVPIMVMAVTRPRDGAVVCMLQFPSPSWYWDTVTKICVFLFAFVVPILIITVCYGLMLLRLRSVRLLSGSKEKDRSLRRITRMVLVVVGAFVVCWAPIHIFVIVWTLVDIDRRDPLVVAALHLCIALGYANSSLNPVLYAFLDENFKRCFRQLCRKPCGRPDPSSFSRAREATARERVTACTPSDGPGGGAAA
molecule,measurement,setting,value
"Oc1ccc2c3c1OC1C(O)C=CC4C(C2)N(/C(=N/c2ccccc2)Nc2ccccc2)CCC341 (stereo not drawn) [JFY-058, (5α,6α)-7,8-didehydro-4,5-epoxy-17-(N,N′-bisphenylcarboxamidino)morphinan, 3,6-diol]",Straub tail behaviour,"ICR mice [1]; IP, 40 minute observation period after administration, Example 18",None of the test animals exhibited Straub tail behaviour
same,% Inhibition,"ICR mice [2]; 1 mg/kg, Table 5",17%
same,Number of Writhings Average,"ICR mice [2]; 1 mg/kg, Table 5",15
same,Number of Writhings Individual,"ICR mice [2]; 1 mg/kg, Table 5",17 and 19 and 10
same,% Inhibition,"ICR mice [2]; 2 mg/kg, Table 5",33%
same,Number of Writhings Average,"ICR mice [2]; 2 mg/kg, Table 5",12
same,Number of Writhings Individual,"ICR mice [2]; 2 mg/kg, Table 5",15 and 13 and 8
same,% Inhibition,"ICR mice [2]; 4 mg/kg, Table 5",39%
same,Number of Writhings Average,"ICR mice [2]; 4 mg/kg, Table 5",11
same,Number of Writhings Individual,"ICR mice [2]; 4 mg/kg, Table 5",15 and 6 and 11
same,% Inhibition,"ICR mice [2]; 8 mg/kg, Table 5",39%
same,Number of Writhings Average,"ICR mice [2]; 8 mg/kg, Table 5",11
same,Number of Writhings Individual,"ICR mice [2]; 8 mg/kg, Table 5",3 and 15 and 14
same,% Inhibition,"ICR mice [2]; 16 mg/kg, Table 5",78%
same,Number of Writhings Average,"ICR mice [2]; 16 mg/kg, Table 5",4
same,Number of Writhings Individual,"ICR mice [2]; 16 mg/kg, Table 5",2 and 1 and 8
same,% Inhibition,"ICR mice [2]; 32 mg/kg, Table 5",100%
same,Number of Writhings Average,"ICR mice [2]; 32 mg/kg, Table 5",0
same,Number of Writhings Individual,"ICR mice [2]; 32 mg/kg, Table 5",0 (2×) and 1
same,% Inhibition,"ICR mice [2]; 64 mg/kg, Table 5",100%
same,Number of Writhings Average,"ICR mice [2]; 64 mg/kg, Table 5",0
same,Number of Writhings Individual,"ICR mice [2]; 64 mg/kg, Table 5",0
same,% Inhibition,"ICR mice [2]; 128 mg/kg, Table 5",100%
same,Number of Writhings Average,"ICR mice [2]; 128 mg/kg, Table 5",0
same,Number of Writhings Individual,"ICR mice [2]; 128 mg/kg, Table 5",0
same,analgesic activity (≧50% reduction in writhes),"ICR mice [2]; doses of 128, 64, 32 and 16 mg/kg",significant activity
"Cc1ccc(N=C(NCCCN2CC[C@]34c5c6ccc(O)c5O[C@H]3[C@@H](O)C=CC4[C@H]2C6)Nc2ccc(C)cc2)cc1 (stereo partly drawn) [KRS-6-26, (5α,6α)-7,8-didehydro-4,5-epoxy-17-(N,N′-bis-p-tolylcarboxamidino-3-aminopropyl)morphinan-3,6-diol]",test animals exhibiting slight Straub tail behaviour,"ICR mice [1]; IP, 16 mg/kg, Example 18",one
same,test animals exhibiting slight Straub tail behaviour and piloerection,"ICR mice [1]; IP, 128, 64 and 32 mg/kg, Example 18",2 of 3
same,inhibition at 10 µM,human κ-opiate receptor,94%
same,inhibition at 10 µM,human δ-opiate receptor,95%
same,inhibition at 10 µM,human μ-opiate receptor,99%
same,% Inhibition,"ICR mice [2]; 1 mg/kg, Table 4",50%
same,Number of Writhings Average,"ICR mice [2]; 1 mg/kg, Table 4",6
same,Number of Writhings Individual,"ICR mice [2]; 1 mg/kg, Table 4",0 and 13 and 4
same,% Inhibition,"ICR mice [2]; 2 mg/kg, Table 4",50%
same,Number of Writhings Average,"ICR mice [2]; 2 mg/kg, Table 4",6
same,Number of Writhings Individual,"ICR mice [2]; 2 mg/kg, Table 4",13 and 2 and 4
same,% Inhibition,"ICR mice [2]; 4 mg/kg, Table 4",75%
same,Number of Writhings Average,"ICR mice [2]; 4 mg/kg, Table 4",3
same,Number of Writhings Individual,"ICR mice [2]; 4 mg/kg, Table 4",0 and 7 and 2
same,% Inhibition,"ICR mice [2]; 8 mg/kg, Table 4",92%
same,Number of Writhings Average,"ICR mice [2]; 8 mg/kg, Table 4",1
same,Number of Writhings Individual,"ICR mice [2]; 8 mg/kg, Table 4",1 and 0 and 2
same,% Inhibition,"ICR mice [2]; 16 mg/kg, Table 4",100%
same,Number of Writhings Average,"ICR mice [2]; 16 mg/kg, Table 4",0
same,Number of Writhings Individual,"ICR mice [2]; 16 mg/kg, Table 4",0
same,% Inhibition,"ICR mice [2]; 32 mg/kg, Table 4",100%
same,Number of Writhings Average,"ICR mice [2]; 32 mg/kg, Table 4",0
same,Number of Writhings Individual,"ICR mice [2]; 32 mg/kg, Table 4",0 (2×) and 1
same,% Inhibition,"ICR mice [2]; 64 mg/kg, Table 4",100%
same,Number of Writhings Average,"ICR mice [2]; 64 mg/kg, Table 4",0
same,Number of Writhings Individual,"ICR mice [2]; 64 mg/kg, Table 4",0
same,% Inhibition,"ICR mice [2]; 128 mg/kg, Table 4",100%
same,Number of Writhings Average,"ICR mice [2]; 128 mg/kg, Table 4",0
same,Number of Writhings Individual,"ICR mice [2]; 128 mg/kg, Table 4",0
same,inhibition in writhing,ICR mice [2]; doses higher than 8 mg/kg,100%
same,deaths,ICR mice [2]; up to 128 mg/kg,no deaths
"CN1CC[C@]23c4c5ccc(O)c4O[C@H]2[C@@H](O)C=C[C@H]3[C@H]1C5 [Morphine.HCl, reference compound]",test animals exhibiting the Straub tail phenomenon,"ICR mice [1]; 3 mg/kg, Example 16",1 of 3
same,test animals with slight Straub tail phenomenon,"ICR mice [1]; 3 mg/kg, Example 18",2 of 3
same,% Inhibition,ICR mice [3],100%
same,No. of Writhings Individual,ICR mice [3]; individual mice,0
same,% Inhibition (prolongation of tail-flick response time),ICR mice [4]; 30 minutes,(100) %
same,"Response Time (Seconds) 30 Mins., Average",ICR mice [4]; 30 minutes after administration,13.6 s
same,Response Time (Seconds) 30 Mins.,"ICR mice [4]; individual mice, 30 minutes after administration, cut-off 15 seconds",>15.0 Seconds (3×) and 9.4 Seconds
same,Response Time (Seconds) 0 Time,"ICR mice [4]; individual mice, pre-treatment (0 minutes)",6.3 Seconds (2×) and 6.2 Seconds and 6.5 Seconds
same,"Response Time (Seconds) 0 Time, Average",ICR mice [4]; pre-treatment (0 minutes),6.3 s
same,% Inhibition,"ICR mice [2]; 3 mg/kg, Table 4",100%
same,Number of Writhings Average,"ICR mice [2]; 3 mg/kg, Table 4",0
same,% Inhibition,"ICR mice [2]; 3 mg/kg, Table 5",100%
same,Number of Writhings Average,"ICR mice [2]; 3 mg/kg, Table 5",0
same,Number of Writhings Individual,"ICR mice [2]; 3 mg/kg, Table 4",1 and 0 (2×)
same,Number of Writhings Individual,"ICR mice [2]; 3 mg/kg, Table 5",0
"(5α,6α)-7,8-didehydro-4,5-epoxy-17-(N,N′-bis-p-tolylcarboxamidino-3-aminopropyl)morphinan-3,6-diol [KRS-6-26]",analgesic activity (≧50% reduction in writhes),"ICR mice [2]; doses of 128, 64, 32, 16, 8, 4, 2 and 1 mg/kg",significant activity
